Series [1] can be described thus: In vivo PK after oral administration in rats, incl. brain and plasma levels. As to conditions: rat, oral 10 mg/kg; for Vd: sodium salt; for Brain: brain harvested at or near Tmax; for Plasma: plasma harvested at or near Tmax.
Series [2] in a line: in vivo. As to conditions: rat, plasma, po, 10 mg/kg.
A short description of series [3]: in vivo. As to conditions: rat, plasma, iv, 2 mg/kg.
A short description of series [4]: in vivo. The note with it: rat, plasma, ip, 10 mg/kg.

The structures appear in SMILES notation.

A word on the AUC(0-t): it is exposure summed from dosing to a finite time, without extrapolation to infinity. A lower AUC(0-t) goes with low exposure.

Take `COc1ccc(C(=O)O)cc1-c1cccc(COc2ccc3c(c2)CN(C2CCCC2)C3=O)c1` [Compound 15a, 3'-((2-Cyclopentyl-1-oxoisoindolin-5-yloxy)methyl)-6-methoxybiphenyl-3-carboxylic acid]: in series [1], the Vd is 10875.2 mL, the Brain is 0.18 ± 0.01 µM and the Plasma was found to be 1.46 ± 0.29 µM. The AUC(0-t) in “in vivo [2]” was 12 µM·h.
In the case of `O=C(O)c1cc(-c2cccc(COc3ccc4c(c3)CN(C3CCCC3)C4=O)c2)ccc1O` [Compound 15b, 3'-((2-Cyclopentyl-1-oxoisoindolin-5-yloxy)methyl)-4-hydroxybiphenyl-3-carboxylic acid], in series [1], the Vd is 28.0 mL, the Brain turned out to be 0.0071 ± 0.0004 µM and the Plasma worked out at 0.21 ± 0.046 µM. Moreover, the AUC(0-t) in “in vivo [3]” is 2.57 µM·h. In “in vivo [2]”, this compound showed an AUC(0-t) of 7.1 µM·h.
On to `O=C(O)c1cc(-c2cccc(COc3ccc4c(c3)CN(C3CCCC3)C4=O)c2)ccc1Cl` [Compound 2], for which the AUC(0-t) in “in vivo [3]” was 11.8 µM·h; in “in vivo [2]”, 42.5 µM·h.
As for `O=C(O)c1cc(-c2cccc(COc3ccc4c(=O)n(C5CC5)sc4c3)c2)ccc1Cl` [Compound 3e, 4-Chloro-3'-((2-cyclopropyl-3-oxo-2,3-dihydrobenzo[d]isothiazol-6-yloxy)methyl)biphenyl-3-carboxylic acid], in series [1], the Vd was 4.1 mL, the Brain came out at 0.03 ± 0.01 µM and the Plasma amounted to 0.8 ± 0.2 µM. Also, the AUC(0-t) in the series “in vivo [2]” is 61.5 µM·h.
As for `O=C(O)c1cc(-c2cccc(-c3ccc4c(c3)CN(C3CCCC3)C4=O)c2)ccc1Cl` [Compound 24, 4-Chloro-3'-(2-cyclopentyl-1-oxoisoindolin-5-yl)biphenyl-3-carboxylic acid], the Vd in series [1] came to 96.2 mL. Moreover, the results for the AUC(0-t) in “in vivo [2]” and in “in vivo [4]” were 2.67 µM·h and 3.23 µM·h, respectively.
